Measured values from ChEMBL document CHEMBL3244204, “Acetylenics. 2. Synthesis and pharmacology of certain N,N-diakyl-3-phenylpropyn-2-amines. Some analogues with tryptamine-like behavioral effects in mice” (J Med Chem, 1978).
Calls of active or inactive are those of the source. No cut-off for these calls is given here.

Tests used:
[1] = species on record: Rattus norvegicus; assay: Inhibition of rat liver MAO assessed as release of 4-hydroxyquinoline from kynuramine at 3.6 x 10^-6 M
[2] = species on record: Rattus norvegicus; assay: Inhibition of rat liver MAO assessed as release of 4-hydroxyquinoline from kynuramine at 3.6 x 10^-6 M preincubated for 10 mins
[3] = system: Mus musculus; assay: Induction of gross behavioral activity in ip dosed Swiss albino mouse assessed as minimum effective dose; format: functional; details: read-out: MED
[4] = system: Mus musculus; assay: Induction of gross behavioral activity in Swiss albino mouse assessed as clonic seizure of hind quarters at 50 mg/kg, ip after 10 to 15 mins; format: functional, organism-based; parameters: dose 50 mg/kg
[5] = system: Mus musculus; assay: Induction of gross behavioral activity in Swiss albino mouse assessed as decrease in motor activity with some clonic seizure at 50 mg/kg, ip after 25 to 30 mins; format: functional, organism-based; parameters: dose 50 mg/kg
[6] = system: Mus musculus; assay: Induction of gross behavioral activity in Swiss albino mouse assessed as increase in clonic seizure of hind quarters at 25 mg/kg, ip in presence of 5HT antagonist BOL; format: functional, organism-based; parameters: dose 25 mg/kg
[7] = system: Mus musculus; assay: Induction of gross behavioral activity in Swiss albino mouse assessed as increase in clonic seizure of hind quarters at 25 mg/kg, ip in presence of 2 to 25 mg/kg of methysergide; format: functional, organism-based
[8] = system: Mus musculus; assay: Induction of gross behavioral activity in Swiss albino mouse assessed as increase in clonic seizure of hind quarters at 25 mg/kg, ip in presence of 3 mg/kg of cyprohepatidine; format: functional, organism-based
[9] = system: Mus musculus; assay: Induction of gross behavioral activity in 3 mg/kg of cyprohepatidine treated Swiss albino mouse assessed as increase in clonic seizure of hind quarters at 25 mg/kg, ip treated 40 mins after cyprohepatidine administration; format: functional, organism-based

Compound | inhibition [1] [%] | inhibition [2] [%] | minimal effective dose [3] [mg/kg] | Activity [4] | Activity [5] | Activity [6] | Activity [7] | Activity [8] | Activity [9]
C#CCN(C)Cc1ccccc1 | 45 | 78 |  |  |  |  |  |  | 
NCCc1c[nH]c2ccccc12 [TRYPTAMINE] |  |  | < 25 | Active | Active | inactive | Active | Active | inactive
